16 molecules from patent US5114961A, “2,5-diaryl tetrahydrofurans and analogs thereof as PAF antagonists” (Merck & Co., Inc., priority 1990, dated 1992) can be followed below.

The target in this test is T1, PAF specific receptor binding site (human platelet membranes) (Homo sapiens, UniProt P25105).
T1 construct: platelet membranes at a drug concentration of 3 nM; from tissue; host or cells: human platelet plasma membranes
T1 sequence (P25105 whole entry): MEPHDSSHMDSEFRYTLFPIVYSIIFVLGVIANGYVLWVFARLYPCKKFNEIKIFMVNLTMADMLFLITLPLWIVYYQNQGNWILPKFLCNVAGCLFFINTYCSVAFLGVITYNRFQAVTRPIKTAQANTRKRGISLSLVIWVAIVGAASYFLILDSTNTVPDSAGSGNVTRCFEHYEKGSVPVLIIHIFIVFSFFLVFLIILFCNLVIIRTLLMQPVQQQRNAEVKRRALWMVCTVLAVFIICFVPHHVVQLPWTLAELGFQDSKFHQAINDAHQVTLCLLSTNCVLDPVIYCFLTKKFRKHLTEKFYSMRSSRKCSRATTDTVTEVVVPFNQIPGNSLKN
Briefly: Inhibition of [3H]N-methylcarbamoyl-PAF binding to human platelet membranes. The note with it: drug concentration of 3 nM, trans configuration. The procedure: The ability of a compound of formula (I) to inhibit the PAF binding to its specific receptor binding site on rabbit or human platelet or PMN plasma membranes was measured by a recently developed assay.
The inhibition of ^3 [H]-PAF or ^3 [H]-N-methyl carbamoyl-TAF binding to the human or rabbit platelet or PMN plasma membrane by a PAF antagonist of formula (I) was determined by a method employing isotopic labeling and filtration techniques. Generally, a series of Tris-buffered solutions of the selected antagonist at predetermined concentrations were prepared. Each of these solutions contains 1 pmole of ^3 H-PAF, a known amount of the test antagonist, and a sufficient amount of the pH 7.5 Tris-buffer solution (10mM Tris, 0.25% bovine serum albumin, and 150 mM NaCl per ml water) to make the final volume of 1 ml. After adding into a set of test tubes each with 100 μg of the platelet plasma membrane suspension (S. B. Hwang, et. al., Biochemistry, Vol. 22 pp. 4756-4763, 1983) and one of the Tris-buffer solutions described above, the resulting mixture in each test tube was incubated at 0° C. for about one hours or until the reaction was complete. Two control samples, one of which (C1) contains all the ingredients described above except the antagonist and the other (C2) contains C1 plus a 100-fold excess of unlabeled PAF, were also prepared and incubated simultaneously with the test samples. After the incubation was completed, the contents of each test tube were filtered under vacuo through a Whatman GF/C fiberglass filter and the residue washed rapidly several times with a total of 20 ml cold (0°-5° C.) Tris-buffer solution. Each washed residue was then suspended in 10 ml scintillation solution (Aquasol 2, New England Nuclear, Conn.) and the radioactivity was counted in a Packard Tri-Carb 460CD Liquid Scintillation System. Defining the counts from a test sample as "Total binding with antagonist"; the counts from the control sample C1, as "Total binding C1 "; and the counts from the control sample C2 as "non-specific binding C2 ", the percent inhibition of each test antagonist can be determined by the following equations: [formula]
Consider `CCCOc1c(OCCN2CCCC2)cc([C@@H]2CC[C@@H](c3cc(OC)c(OC)c(OC)c3)O2)cc1S(=O)(=O)CC(C)=O` (relative stereo) [trans-2-[3-(2-Oxopropylsulfonyl)-4-n-propoxy-5-{2-(1-pyrrolidino)-ethoxy}phenyl]-5-(3,4,5-trimethoxyphenyl)tetrahydrofuran], for which the inhibition at 0.003 µM is 29%. In the case of `CCCOc1c(OCCN2CCCCC2)cc([C@H]2CC[C@H](c3cc(OC)c(OC)c(OC)c3)O2)cc1S(=O)(=O)CC(C)=O` (relative stereo) [trans-2-[3-(2-Oxopropylsulfonyl)-4-n-propoxy-5-{2-(1-piperidinyl)-ethoxy}phenyl]-5-(3,4,5-trimethoxyphenyl)tetrahydrofuran] it was 34%; in that of `CCCS(=O)(=O)c1cc([C@@H]2CC[C@@H](c3cc(OC)c(OC)c(OC)c3)O2)cc(OCCN2CCOCC2)c1OCCCCCCO` (relative stereo) [trans-2-[3-n-Propylsulfonyl-4-(6-hydroxy-n-hexyloxy)-5-{2-(1-morpholino)-ethoxy}phenyl]5-(3,4,5-trimethoxyphenyl)tetrahydrofuran], 55%.

`CCCS(=O)(=O)c1cc([C@@H]2CC[C@@H](c3cc(OC)c(OC)c(OC)c3)O2)cc(OC)c1OCCS(=O)(=O)c1ccccc1` (relative stereo) [trans-2-[3-n-Propylsulfonyl-4-{2-(Phenylsulfonyl)ethoxy}-5-methoxyphenyl]-5-(3,4,5-trimethoxyphenyl(tetrahydrofuran] gave an inhibition at 0.003 µM of 73%. For `CCCOc1c(OCCCn2ccnc2)cc([C@H]2CC[C@H](c3cc(OC)c(OC)c(OC)c3)O2)cc1S(=O)(=O)CC(C)O` (relative stereo) [trans-2-[3-(2-Hydroxy-n-propylsulfonyl)-4-n-propoxy-5-{3-(1-imidazolyl)propoxy}phenyl]-5-(3,4,5-trimethoxyphenyl)tetrahydrofuran] the value was 41%; for `CCCOc1c(OCCCCN2CCOCC2)cc([C@@H]2CC[C@@H](c3cc(OC)c(OC)c(OC)c3)O2)cc1S(=O)(=O)CC(C)=O` (relative stereo) [trans-2-[3-(2-Oxopropylsulfonyl)-4-n-propoxy-5-{4-(1-morpholino)-n-butoxy}phenyl]-5-(3,4,5-trimethoxyphenyl)tetrahydrofuran], 30%; for `CCCOc1c(OCCCN2CCOCC2)cc([C@@H]2CC[C@@H](c3cc(OC)c(OC)c(OC)c3)O2)cc1S(=O)(=O)CC(C)=O` [(-)-(2S,5S)-[3-(2-Oxopropylsulfonyl)-4-n-propoxy-5-{3-(1-morpholino)-n-propoxy}phenyl]-5-(3,4,5-trimethoxyphenyl)tetrahydrofuran], 41%. For `CCCOc1c(OCCSc2ncc[nH]2)cc([C@H]2CC[C@H](c3cc(OC)c(OC)c(OC)c3)O2)cc1S(=O)(=O)CC(C)=O` (relative stereo) [trans-2-[3-(2-Oxopropylsulfonyl)-4-n-propoxy-5-{2-(2-imidazolylthio)ethoxy}phenyl]-5-(3,4,5-trimethoxyphenyl)tetrahydrofuran] the value was 55%; for `CCCOc1c(OCCCN2CCOCC2)cc([C@@H]2CC[C@@H](c3cc(OC)c(OC)c(OC)c3)O2)cc1S(=O)(=O)CC(C)O` (relative stereo) [trans-2-[3-(2-hydroxypropyl-sulfonyl)-4-propoxy-5-{3-(1-morpholino)-n-propoxy}phenyl]-5-(3,4,5-trimethoxyphenyl)tetrahydrofuran], 18%. For the molecule `CCCOc1c(OCCCSc2nc[nH]n2)cc([C@@H]2CC[C@@H](c3cc(OC)c(OC)c(OC)c3)O2)cc1S(=O)(=O)CC(C)O` (relative stereo) [trans-2-[3-(2-Hydroxy-n-propylsulfonyl)-4-n-propoxy-5-{3-(1H-1,2,4-triazolyl-3-thio)propoxy}phenyl]-5-(3,4,5-trimethoxyphenyl)tetrahydrofuran], at 0.003 µM the inhibition was 61%. For `CCCOc1c(OCCN2CCOCC2)cc([C@@H]2CC[C@@H](c3cc(OC)c(OC)c(OC)c3)O2)cc1S(=O)(=O)CC(C)O` (relative stereo) [trans-2-[3-(2-Hydroxypropylsulfonyl)-4-n-propoxy-5-{2-(1-morpholino)-n-ethoxy}phenyl]-5-(3,4,5-trimethoxyphenyl)tetrahydrofuran] the value was 20%; for `CCCOc1c(OCCCN2CCOCC2)cc([C@@H]2CC[C@@H](c3cc(OC)c(OC)c(OC)c3)O2)cc1S(=O)(=O)CCC(C)O` (relative stereo) [trans-2-[3-(3-Hydroxybutyl)sulfonyl-4-n-propoxy-5-(3-{1-morpholino}-n-propoxy)phenyl]-5-(3,4,5-trimethoxyphenyl)tetrahydrofuran], 25%; for `CCCOc1c(OCCN2CCNCC2)cc([C@@H]2CC[C@@H](c3cc(OC)c(OC)c(OC)c3)O2)cc1S(=O)(=O)CC(C)=O` (relative stereo), 34%.

Molecule `CCCOc1cc([C@@H]2CC[C@@H](c3cc(OC)c(OC)c(OC)c3)O2)cc(S(=O)(=O)CCN2CCOCC2)c1OCCC` (relative stereo) [trans-2-[3-(2-N-Morpholinoethylsulfonyl)-4,5-di-n-propoxyphenyl]-5-(3,4,5-trimethoxyphenyl)tetrahydrofuran] returned an inhibition at 0.003 µM of 17%. `CCCOc1c(OCCCSc2ncc[nH]2)cc([C@H]2CC[C@H](c3cc(OC)c(OC)c(OC)c3)O2)cc1S(=O)(=O)CC(C)O` (relative stereo) [trans-2-[3-(2-Hydroxy-n-propylsulfonyl)-4-n-propoxy-5-{3-(2-imidazolylthio)n-propoxy}phenyl]-5-(3,4,5-trimethoxyphenyl)tetrahydrofuran] had an inhibition at 0.003 µM of 46%. For `CCCOc1c(OCCCc2cccnc2)cc([C@H]2CC[C@H](c3cc(OC)c(OC)c(OC)c3)O2)cc1S(=O)(=O)CC(C)=O` (relative stereo) [trans-2-{3-(2-Oxopropylsulfonyl)-4-n-propoxy-5-[3-(3-pyridyl)propoxy}phenyl]-5-(3,4,5-trimethoxyphenyl) tetrahydrofuran] the value was 62%.

In general, inhibition refers to the drop in the measured response relative to a control, in per cent. A lower inhibition goes with little suppression.
